Results taken from patent publication US9180116B2, “Difluorolactam compounds as EP4 receptor-selective agonists for use in the treatment of EP4-mediated diseases and conditions” (Cayman Chemical Company, Inc., priority 2012, dated 2015).
Read-outs that look alike come from different tables or passages of the source.

Key:
rat EP2 receptor [1] = biological target: T1, rat EP2 receptor (Rattus norvegicus (Rat), UniProt Q62928); assay: SEAP activity assay for EP2 agonist (STEP plate format); assay type: cell-based; conditions: read-out: STEP cell functional assay EC50 SEAP/EP2
T1 sequence (Q62928 whole entry): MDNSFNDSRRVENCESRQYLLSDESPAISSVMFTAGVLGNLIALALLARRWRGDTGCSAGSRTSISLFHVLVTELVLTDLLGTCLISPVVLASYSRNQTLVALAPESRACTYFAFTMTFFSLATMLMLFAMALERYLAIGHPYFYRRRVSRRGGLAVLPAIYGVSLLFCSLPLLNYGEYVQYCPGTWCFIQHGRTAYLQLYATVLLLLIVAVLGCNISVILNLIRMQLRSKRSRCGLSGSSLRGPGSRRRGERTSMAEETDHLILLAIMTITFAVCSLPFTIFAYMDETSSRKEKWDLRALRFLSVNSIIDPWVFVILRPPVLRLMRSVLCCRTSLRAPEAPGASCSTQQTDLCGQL
Text: (§1) Functional Cellular Assays (STEP Plate Format)
(§2) Procedure of SEAP Activity Assay for EP2/EP4 Agonist
(§3) 3. […] In addition each concentration had triplicates.
(§4) 4. […] Cover the plate with the lid.

[2] = biological target: Human Prostanoid EP4 Receptor (Homo sapiens (Human), UniProt P35408); assay: Radioligand binding assay, agonist site of human prostanoid EP4 receptor in transfected HEK-293 cells; conditions: for IC50: read-out: hEP4 receptor binding IC50; for Ki: read-out: hEP4 receptor binding Ki
Human Prostanoid EP4 Receptor, sequence (P35408 whole entry): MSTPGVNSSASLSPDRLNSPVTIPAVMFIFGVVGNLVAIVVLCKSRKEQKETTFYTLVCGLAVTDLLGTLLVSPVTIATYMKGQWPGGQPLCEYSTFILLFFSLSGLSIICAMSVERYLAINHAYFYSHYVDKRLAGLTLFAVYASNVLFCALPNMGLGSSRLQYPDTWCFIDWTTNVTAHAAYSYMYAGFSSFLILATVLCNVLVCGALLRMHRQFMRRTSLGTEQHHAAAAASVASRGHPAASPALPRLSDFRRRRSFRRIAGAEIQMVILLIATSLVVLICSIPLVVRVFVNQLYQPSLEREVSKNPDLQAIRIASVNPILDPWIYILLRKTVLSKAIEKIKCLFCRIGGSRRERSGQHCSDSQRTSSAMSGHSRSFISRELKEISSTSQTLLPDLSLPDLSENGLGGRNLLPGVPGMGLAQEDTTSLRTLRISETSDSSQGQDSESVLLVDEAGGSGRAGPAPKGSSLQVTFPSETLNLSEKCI
Procedure: Radioligand Binding Assay for the Evaluation of the Affinity of Compounds for the Agonist Site of the Human Prostanoid EP4 Receptor in Transfected HEK-293 Cells
Following incubation, the samples are filtered rapidly under vacuum through glass fiber filters (GF/B, Packard) presoaked with 0.3% PEI and rinsed several times with ice-cold 50 mM Tris-HCl using a 96-sample cell harvester (Unifilter, Packard). The filters are dried then counted for radioactivity in a scintillation counter (Topcount, Packard) using a scintillation cocktail (Microscint 0, Packard).

calvarial bone defect = assay: Rat calvarial defect model (bone formation); assay type: in vivo, female Sprague Dawley rats; conditions: rat cranial defect 2.6 mm, drug in calcium phosphate cement/demineralized bone matrix, eight weeks
rat EP4 receptor [3] = biological target: T2, rat EP4 receptor (Rattus norvegicus (Rat), UniProt P43114); assay: SEAP activity assay for EP4 agonist (STEP plate format); assay type: cell-based; conditions: read-out: STEP cell functional assay EC50 SEAP/EP4
T2 sequence (P43114 whole entry): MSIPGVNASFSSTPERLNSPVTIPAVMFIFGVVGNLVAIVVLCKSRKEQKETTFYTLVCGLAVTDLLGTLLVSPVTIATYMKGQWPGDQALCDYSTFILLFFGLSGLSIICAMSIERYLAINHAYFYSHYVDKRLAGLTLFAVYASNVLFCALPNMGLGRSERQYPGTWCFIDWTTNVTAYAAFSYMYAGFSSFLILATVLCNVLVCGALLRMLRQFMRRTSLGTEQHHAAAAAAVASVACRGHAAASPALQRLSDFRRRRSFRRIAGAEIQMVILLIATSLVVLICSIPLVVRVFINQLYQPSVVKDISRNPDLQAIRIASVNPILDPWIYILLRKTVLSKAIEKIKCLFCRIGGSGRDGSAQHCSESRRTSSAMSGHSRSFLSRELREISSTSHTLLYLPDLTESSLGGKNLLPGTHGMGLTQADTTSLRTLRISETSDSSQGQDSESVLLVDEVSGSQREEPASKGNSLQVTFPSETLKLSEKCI
Text: as §1, §2, §3, §4

rat EP4 receptor [4] = biological target: T2, rat EP4 receptor; assay: cAMP level assay for EP4 agonist (STEP plate format); assay type: cell-based; conditions: read-out: STEP cell functional assay EC50 cAMP/EP4
Text: as §1
(§5) Procedure of cAMP Assay for EP2/EP4 Agonist
as §3
(§6) 6. Aspirate the supernatant.

rat EP2 receptor [5] = biological target: T1, rat EP2 receptor; assay: cAMP level assay for EP2 agonist (STEP plate format); assay type: cell-based; conditions: cAMP readout, read-out: STEP cell functional assay EC50 cAMP/EP2
Text: as §1, §5, §3, §6

[6] = SEAP luminescence, 6-8 hours of stimulation
[7] = [3H]PGE2 0.5 nM, HEK-293 cell membrane homogenates

`CCC#CC[C@H](C)[C@H](O)/C=C/[C@H]1CC(F)(F)C(=O)N1CCCCCCC(=O)O` [Example 2C, 7-((R)-3,3-difluoro-5-((3S,4S,E)-3-hydroxy-4-methylnon-1-en-6-yn-1-yl)-2-oxopyrrolidin-1-yl)heptanoic acid] showed an EC50 (rat EP2 receptor [1]; [6]) greater than 1000 nM, an IC50 [2, 7] of 1.3 nM and a Ki [2, 7] of 0.49 nM. The “Healing of a calvarial bone defect” value (calvarial bone defect) was “Accelerated Healing”, the EC50 (rat EP4 receptor [3]; [6]) was 0.038 ± 0.037 nM and the EC50 (rat EP4 receptor [4]; cAMP by ELISA, 30 minutes, 500 μM IBMX) was 0.24 ± 0.08 nM.
`C[C@@H](CCCc1ccccc1)[C@H](O)CC[C@H]1CC(F)(F)C(=O)N1CCCc1ccc(C(=O)O)s1` [Example 28C-H2, 5-(3-((S)-3,3-difluoro-5-((3R,4S)-3-hydroxy-4-methyl-7-phenylheptyl)-2-oxopyrrolidin-1-yl)propyl)thiophene-2-carboxylic acid] gave an EC50 (rat EP2 receptor [5]) of 1310 nM and an EC50 (rat EP4 receptor [4]; cAMP readout, EP4) of 0.0029 ± 0.0008 nM.
For `CCCCC[C@H](O)/C=C/[C@H]1CC(F)(F)C(=O)N1CCCc1ccc(C(=O)O)s1` [Example 33C, 5-(3-((R)-3,3-difluoro-5-((S,E)-3-hydroxyoct-1-en-1-yl)-2-oxopyrrolidin-1-yl)propyl)thiophene-2-carboxylic acid], the EC50 (rat EP2 receptor [1]; SEAP readout, EP2) was 326 nM, the IC50 ([2]; human EP4 receptor binding) was 0.28 nM and the Ki ([2]; human EP4 receptor binding) was 0.1 nM. The EC50 (rat EP4 receptor [3]; SEAP readout, EP4) was 0.063 nM and the EC50 (rat EP4 receptor [4]; cAMP readout, EP4) was 0.079 nM.
